# Reference: patent publication US11530210B2, “Substituted heteroaromatic pyrazolo-pyridines and their use as GLUN2B receptor modulators” (JANSSEN PHARMACEUTICA NV, priority 2019, dated 2022)
# Where a name gives a salt, the structure may show the parent alone.
# Molecular target: T1, human GluN1/GluN2B NMDA receptors (Homo sapiens, UniProt Q13224)
# T1 construct: expressed in transfected cells
# Assay: Calcium flux (FLIPR) assay on cloned human NR1/GluN2B ion channels expressed in mammalian cells (standard and HTS variants)
# Type: cell-based
# Details: cells expressing human GluN1/GluN2B, glutamate and glycine co-agonists
# Procedure, shortened: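 Calcium influx read by FLIPR after co-agonist addition (glycine 10 μM, glutamate near EC40) following 5 min compound preincubation, with signal normalized to control wells.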
# T1 sequence (Q13224 27-1484, other chains not shown): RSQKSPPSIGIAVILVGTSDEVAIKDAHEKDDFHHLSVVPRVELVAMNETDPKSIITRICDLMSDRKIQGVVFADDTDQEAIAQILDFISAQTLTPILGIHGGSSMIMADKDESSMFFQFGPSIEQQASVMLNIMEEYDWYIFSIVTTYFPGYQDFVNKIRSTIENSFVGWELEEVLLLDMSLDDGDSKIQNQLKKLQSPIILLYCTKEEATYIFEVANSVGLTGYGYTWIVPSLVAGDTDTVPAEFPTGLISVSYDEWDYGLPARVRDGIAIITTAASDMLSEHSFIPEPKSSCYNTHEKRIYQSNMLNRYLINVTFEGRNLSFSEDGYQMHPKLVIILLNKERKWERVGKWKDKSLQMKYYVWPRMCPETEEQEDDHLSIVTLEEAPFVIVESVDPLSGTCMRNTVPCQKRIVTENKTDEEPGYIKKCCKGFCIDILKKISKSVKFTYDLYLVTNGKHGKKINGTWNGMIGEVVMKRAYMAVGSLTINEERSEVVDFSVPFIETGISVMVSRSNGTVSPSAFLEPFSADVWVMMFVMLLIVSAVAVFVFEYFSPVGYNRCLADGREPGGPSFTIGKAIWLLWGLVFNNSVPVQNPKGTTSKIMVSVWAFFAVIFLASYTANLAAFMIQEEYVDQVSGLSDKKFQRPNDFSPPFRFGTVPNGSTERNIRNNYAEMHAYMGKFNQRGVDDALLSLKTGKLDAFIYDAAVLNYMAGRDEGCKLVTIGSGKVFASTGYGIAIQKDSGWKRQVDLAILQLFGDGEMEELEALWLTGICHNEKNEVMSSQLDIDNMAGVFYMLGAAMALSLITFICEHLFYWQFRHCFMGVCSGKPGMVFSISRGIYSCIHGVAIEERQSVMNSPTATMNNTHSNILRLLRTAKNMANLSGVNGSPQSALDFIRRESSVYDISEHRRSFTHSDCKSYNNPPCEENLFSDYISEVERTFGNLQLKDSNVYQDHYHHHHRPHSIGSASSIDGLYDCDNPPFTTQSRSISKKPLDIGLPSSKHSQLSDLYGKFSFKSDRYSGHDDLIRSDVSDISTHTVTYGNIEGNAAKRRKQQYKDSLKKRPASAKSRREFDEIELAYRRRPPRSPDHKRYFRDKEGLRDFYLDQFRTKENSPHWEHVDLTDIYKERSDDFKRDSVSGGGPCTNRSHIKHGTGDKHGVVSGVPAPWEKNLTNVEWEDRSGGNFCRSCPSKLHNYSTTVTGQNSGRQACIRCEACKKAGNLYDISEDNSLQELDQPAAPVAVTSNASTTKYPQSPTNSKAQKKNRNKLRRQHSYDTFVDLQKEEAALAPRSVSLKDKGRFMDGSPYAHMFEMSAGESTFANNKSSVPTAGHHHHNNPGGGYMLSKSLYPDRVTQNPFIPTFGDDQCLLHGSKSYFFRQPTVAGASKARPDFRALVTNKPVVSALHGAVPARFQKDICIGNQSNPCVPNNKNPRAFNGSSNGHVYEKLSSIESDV
row,IC50 [nM],Structure (SMILES)
1,200,"CC(F)(F)c1cc(-c2cnc3cnn(Cc4cncc(Cl)c4)c3c2)ccc1Cl [Example 237, 6-[4-Chloro-3-(1,1-difluoroethyl)phenyl]-1-[(5-chloro-3-pyridyl)methyl]pyrazolo[4,3-b]pyridine]"
2,117,"FC(F)Oc1cc(-c2cnc3cnn(Cc4cccnc4)c3c2)ccc1Cl [Example 238, 6-[4-Chloro-3-(difluoromethoxy)phenyl]-1-(3-pyridylmethyl)pyrazolo[4,3-b]pyridine]"
3,120,"Cc1cncc(Cn2ncc3ncc(-c4ccc(Cl)c(OC(F)F)c4)cc32)c1 [Example 239, 6-[4-Chloro-3-(difluoromethoxy)phenyl]-1-[(5-methyl-3-pyridyl)methyl]pyrazolo[4,3-b]pyridine]"
4,166,"Fc1cncc(Cn2ncc3ncc(-c4ccc(Cl)c(OC(F)F)c4)cc32)c1 [Example 240, 6-[4-Chloro-3-(difluoromethoxy)phenyl]-1-[(5-fluoro-3-pyridyl)methyl]pyrazolo[4,3-b]pyridine]"
5,151,"N#Cc1cncc(Cn2ncc3ncc(-c4ccc(Cl)c(OC(F)F)c4)cc32)c1 [Example 241, 5-[[6-[4-Chloro-3-(difluoromethoxy)phenyl]pyrazolo[4,3-b]pyridin-1-yl]methyl]pyridine-3-carbonitrile]"
6,500,"COc1cncc(Cn2ncc3ncc(-c4ccc(Cl)c(OC(F)F)c4)cc32)c1 [Example 242, 6-[4-Chloro-3-(difluoromethoxy)phenyl]-1-[(5-methoxy-3-pyridyl)methyl]pyrazolo[4,3-b]pyridine]"
7,146,"FC(F)Oc1cc(-c2cnc3cnn(Cc4cncc(Cl)c4)c3c2)ccc1Cl [Example 243, 6-[4-Chloro-3-(difluoromethoxy)phenyl]-1-[(5-chloro-3-pyridyl)methyl]pyrazolo[4,3-b]pyridine]"
8,33,"Cc1c(F)ccc(-c2cnc3cnn(Cc4cccnc4)c3c2)c1F [Example 245, 6-(2,4-Difluoro-3-methyl-phenyl)-1-(3-pyridylmethyl)pyrazolo[4,3-b]pyridine trifluoroacetate salt]"
9,52,"Cc1cncc(Cn2ncc3ncc(-c4ccc(F)c(C)c4F)cc32)c1 [Example 246, 6-(2,4-Difluoro-3-methyl-phenyl)-1-[(5-methyl-3-pyridyl)methyl]pyrazolo[4,3-b]pyridine]"
10,40,"Cc1c(F)ccc(-c2cnc3cnn(Cc4cncc(F)c4)c3c2)c1F [Example 249, 6-(2,4-Difluoro-3-methyl-phenyl)-1-[(5-fluoro-3-pyridyl)methyl]pyrazolo[4,3-b]pyridine trifluoroacetate salt]"
11,980,"Fc1cc(-c2cnc3cnn(Cc4cncc(OC(F)F)c4)c3c2)cc(F)c1F [Example 253, 1-[[5-(Difluoromethoxy)-3-pyridyl]methyl]-6-(3,4,5-trifluorophenyl)pyrazolo[4,3-b]pyridine]"
12,273,"Cc1ccc(Cn2ncc3ncc(-c4ccc(F)c(C(F)F)c4)cc32)nn1 [Example 262, 6-[3-(Difluoromethyl)-4-fluoro-phenyl]-1-[(6-methylpyridazin-3-yl)methyl]pyrazolo[4,3-b]pyridine]"
13,112,"Fc1ccc(-c2cnc3cnn(Cc4cccnn4)c3c2)cc1OC(F)F [Example 263, 6-[3-(Difluoromethoxy)-4-fluoro-phenyl]-1-(pyridazin-3-ylmethyl)pyrazolo[4,3-b]pyridine]"
14,626,"Cc1ccc(Cn2ncc3ncc(-c4ccc(F)c(OC(F)F)c4)cc32)nn1 [Example 264, 6-[3-(Difluoromethoxy)-4-fluoro-phenyl]-1-[(6-methylpyridazin-3-yl)methyl]pyrazolo[4,3-b]pyridine]"
15,115,"FC(F)Oc1cc(-c2cnc3cnn(Cc4cccnn4)c3c2)ccc1Cl [Example 265, 6-[4-Chloro-3-(difluoromethoxy)phenyl]-1-(pyridazin-3-ylmethyl)pyrazolo[4,3-b]pyridine]"
16,670,"Fc1ccc(-c2cnc3cnn(Cc4cccnn4)c3c2)cc1F [Example 266, 6-(3,4-Difluorophenyl)-1-(pyridazin-3-ylmethyl)pyrazolo[4,3-b]pyridine]"
17,176,"Fc1ccc(-c2cnc3cnn(Cc4ccncn4)c3c2)cc1C(F)F [Example 270, 6-[3-(Difluoromethyl)-4-fluoro-phenyl]-1-(pyrimidin-4-ylmethyl)pyrazolo[4,3-b]pyridine]"
18,401,"Fc1ccc(-c2cnc3cnn(Cc4ccncn4)c3c2)cc1OC(F)F [Example 271, 6-[3-(Difluoromethoxy)-4-fluoro-phenyl]-1-(pyrimidin-4-ylmethyl)pyrazolo[4,3-b]pyridine]"
19,37,"Fc1ccc(-c2cnc3cnn(Cc4cnccn4)c3c2)cc1C(F)F [Example 272, 6-[3-(Difluoromethyl)-4-fluoro-phenyl]-1-(pyrazin-2-ylmethyl)pyrazolo[4,3-b]pyridine]"
20,320,"Fc1ccc(-c2cnc3cnn(Cc4cnccn4)c3c2)cc1OC(F)F [Example 273, 6-[3-(Difluoromethoxy)-4-fluoro-phenyl]-1-(pyrazin-2-ylmethyl)pyrazolo[4,3-b]pyridine]"
21,51,"CC(F)(F)c1cccc(-c2cnc3cnn(Cc4cncnc4)c3c2)c1 [Example 274, 6-[3-(1,1-Difluoroethyl)phenyl]-1-(pyrimidin-5-ylmethyl)pyrazolo[4,3-b]pyridine]"
22,145,"FC(F)(F)c1cccc(-c2cnc3cnn(Cc4cncnc4)c3c2)c1 [Example 276, 1-(Pyrimidin-5-ylmethyl)-6-[3-(trifluoromethyl)phenyl]pyrazolo[4,3-b]pyridine]"
23,65,"CC(F)(F)c1cc(-c2cnc3cnn(Cc4cncnc4)c3c2)ccc1F [Example 277, 6-[3-(1,1-Difluoroethyl)-4-fluoro-phenyl]-1-(pyrimidin-5-ylmethyl)pyrazolo[4,3-b]pyridine]"
24,52,"Fc1ccc(-c2cnc3cnn(Cc4cncnc4)c3c2)cc1OC(F)F [Example 278, 6-[3-(Difluoromethoxy)-4-fluoro-phenyl]-1-(pyrimidin-5-ylmethyl)pyrazolo[4,3-b]pyridine]"

# The next lines start with the molecule.
row,Structure (SMILES),IC50 [nM]
1,"CC(F)(F)c1cc(-c2cnc3cnn(Cc4cncc(C#N)c4)c3c2)ccc1Cl [Example 236, 5-[[6-[4-Chloro-3-(1,1-difluoroethyl)phenyl]pyrazolo[4,3-b]pyridin-1-yl]methyl]pyridine-3-carbonitrile]",494
2,"Cc1c(F)ccc(-c2cnc3cnn(Cc4ccccn4)c3c2)c1F [Example 244, 6-(2,4-Difluoro-3-methyl-phenyl)-1-(2-pyridylmethyl)pyrazolo[4,3-b]pyridine]",310
3,"Cc1ccncc1Cn1ncc2ncc(-c3ccc(F)c(C)c3F)cc21 [Example 247, 6-(2,4-Difluoro-3-methyl-phenyl)-1-[(4-methyl-3-pyridyl)methyl]pyrazolo[4,3-b]pyridine trifluoroacetate salt]",128
4,"Cc1c(F)ccc(-c2cnc3cnn(Cc4ccc(F)nc4)c3c2)c1F [Example 248, 6-(2,4-Difluoro-3-methyl-phenyl)-1-[(6-fluoro-3-pyridyl)methyl]pyrazolo[4,3-b]pyridine]",62
5,"Fc1cc(-c2cnc3cnn(Cc4ccccn4)c3c2)cc(F)c1F [Example 250, 1-(2-Pyridylmethyl)-6-(3,4,5-trifluorophenyl)pyrazolo[4,3-b]pyridine]",2630
6,"Fc1cncc(Cn2ncc3ncc(-c4cc(F)c(F)c(F)c4)cc32)c1 [Example 251, 1-[(5-Fluoro-3-pyridyl)methyl]-6-(3,4,5-trifluorophenyl)pyrazolo[4,3-b]pyridine]",25
7,"COc1cncc(Cn2ncc3ncc(-c4cc(F)c(F)c(F)c4)cc32)c1 [Example 252, 1-[(5-Methoxy-3-pyridyl)methyl]-6-(3,4,5-trifluorophenyl)pyrazolo[4,3-b]pyridine]",382
8,"FC(F)(F)c1cccc(-c2cnc3cnn(Cc4ccnnc4)c3c2)c1 [Example 254, 1-(Pyridazin-4-ylmethyl)-6-[3-(trifluoromethyl)phenyl]pyrazolo[4,3-b]pyridine]",548
9,"Cc1cccc(-c2cnc3cnn(Cc4cccnn4)c3c2)c1 [Example 255, 6-(m-Tolyl)-1-(pyridazin-3-ylmethyl)pyrazolo[4,3-b]pyridine]",329
10,"Fc1cccc(-c2cnc3cnn(Cc4cccnn4)c3c2)c1 [Example 256, 6-(3-Fluorophenyl)-1-(pyridazin-3-ylmethyl)pyrazolo[4,3-b]pyridine trifluoroacetate salt]",1410
11,"CC(F)(F)c1cccc(-c2cnc3cnn(Cc4cccnn4)c3c2)c1 [Example 257, 6-[3-(1,1-Difluoroethyl)phenyl]-1-(pyridazin-3-ylmethyl)pyrazolo[4,3-b]pyridine]",110
12,"FC(F)(F)c1cccc(-c2cnc3cnn(Cc4cccnn4)c3c2)c1 [Example 258, 1-(Pyridazin-3-ylmethyl)-6-[3-(trifluoromethyl)phenyl]pyrazolo[4,3-b]pyridine]",240
13,"Cc1cc(-c2cnc3cnn(Cc4cccnn4)c3c2)ccc1F [Example 259, 6-(4-Fluoro-3-methyl-phenyl)-1-(pyridazin-3-ylmethyl)pyrazolo[4,3-b]pyridine trifluoroacetate salt]",30
14,"CC(F)(F)c1cc(-c2cnc3cnn(Cc4cccnn4)c3c2)ccc1F [Example 260, 6-[3-(1,1-Difluoroethyl)-4-fluoro-phenyl]-1-(pyridazin-3-ylmethyl)pyrazolo[4,3-b]pyridine]",162
15,"Cc1cc(-c2cnc3cnn(Cc4cccnn4)c3c2)ccc1Cl [Example 267, 6-(4-Chloro-3-methyl-phenyl)-1-(pyridazin-3-ylmethyl)pyrazolo[4,3-b]pyridine]",404
16,"Fc1cc(-c2cnc3cnn(Cc4cccnn4)c3c2)cc(F)c1F [Example 268, 1-(Pyridazin-3-ylmethyl)-6-(3,4,5-trifluorophenyl)pyrazolo[4,3-b]pyridine]",673
17,"Cc1c(F)ccc(-c2cnc3cnn(Cc4cccnn4)c3c2)c1F [Example 269, 6-(2,4-Difluoro-3-methyl-phenyl)-1-(pyridazin-3-ylmethyl)pyrazolo[4,3-b]pyridine]",108
